In patent US10006166B2, “Integrating the production of carboxylated cellulose nanofibrils and cellulose nanocrystals using recyclable organic acids” (The United States of America as Represented by the …, priority 2016, dated 2018):

Procedure: UV absorption spectrophotometric methods were employed for rapidly determining the soluble acid concentration in the solution. The UV-absorption spectra for oxalic, maleic, and toluenesulfonic acids are shown in FIGS. 3, 4, and 5, respectively.
The solubilities of oxalic, maleic, and toluenesulfonic acids at different temperatures were determined from UV absorption measurements in saturated solutions at different temperatures. The measured solubility data were fit to an exponential function as shown by Eq. (1). The maximum acid concentration that can be used at a given temperature can be determined from the exponential expression.
[formula] Where s0 and B are fitting constants and listed in TABLE 1 for the three acids studied while T is in degree Kelvin.

## O=C(O)/C=C\C(=O)O [Maleic acid]
  Fitting constant B for predicting solubility using Eq. (1): 2,461
  Fitting constant s0 for predicting solubility using Eq. (1): 3.14 × 10^5
